Reference: PubChem BioAssay AID330 (DTP/NCI, 2004)
Where “and” joins values, the source holds several entries; their conditions need not be identical. Equal entries are not always repeated. Inconclusive results and toxic doses are left out.

System: P388 leukemia ip, CD2F1 mice, survival T/C
Experiment: NCI In Vivo Anticancer Drug Screen. Data for tumor model P388 Leukemia (intraperitoneal) in CD2F1 (CDF1) mice
Settings: endpoint: median survival time, higher = longer survival
Procedure, shortened: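 Mice carrying the transplanted tumor received test compound or vehicle. Survival was recorded in each group, and the value is the treated-group measurement divided by that of the vehicle-treated control group.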

[1] = dose: 50.0 mg/kg/injection, schedule: Q01DX009 (ip), vehicle: saline
[2] = dose: 100.0 mg/kg/injection, schedule: Q01DX009 (ip), vehicle: saline
[3] = dose: 200.0 mg/kg/injection, schedule: Q01DX009 (ip), vehicle: saline
[4] = dose: 100.0 mg/kg/injection, schedule: Q04DX003 (ip), vehicle: saline with Tween-80
[5] = dose: 100.0 mg/kg/injection, schedule: Q01DX005 (ip), vehicle: saline with Tween-80
[6] = dose: 200.0 mg/kg/injection, schedule: Q01DX005 (ip), vehicle: saline with Tween-80

With Cc1cc(N=Cc2c(CO)cnc(C)c2O)c(N=Cc2c(CO)cnc(C)c2O)cc1C the T/C (dose: 50.0 mg/kg/injection, schedule: Q01DX005 (ip), vehicle: Klucel (hydroxypropylcellulose) (HPC)) was 98 % of control, the T/C (dose: 60.0 mg/kg/injection, schedule: Q01DX005 (ip), vehicle: saline with Tween-80) was 93 % of control and the T/C (dose: 100.0 mg/kg/injection, schedule: Q01DX005 (ip), vehicle: Klucel (hydroxypropylcellulose) (HPC)) was 96 % of control. The T/C (dose: 120.0 mg/kg/injection, schedule: Q01DX005 (ip), vehicle: saline with Tween-80) was 104 % of control, the T/C (dose: 200.0 mg/kg/injection, schedule: Q01DX005 (ip), vehicle: Klucel (hydroxypropylcellulose) (HPC)) was 91 % of control and the T/C (dose: 240.0 mg/kg/injection, schedule: Q01DX005 (ip), vehicle: saline with Tween-80) was 94 % of control.
CCC(=O)[O][Sn]([CH3])([CH3])[O][Sn]([CH3])([CH3])[O]C(=O)CC was tested, and the T/C (dose: 6.25 mg/kg/injection, schedule: Q01DX005 (ip), vehicle: saline) was 117 % of control, the T/C (dose: 12.5 mg/kg/injection, schedule: Q01DX005 (ip), vehicle: saline) was 117 % of control and 118 % of control and the T/C (dose: 25.0 mg/kg/injection, schedule: Q01DX005 (ip), vehicle: saline) was 120 % of control.
In the case of CCOC(=O)CNC(=O)Nc1c(C)n(C)n(-c2ccccc2)c1=O, the T/C [1] is reported as 103 % of control, the T/C [2] is reported as 100 % of control and the T/C [3] is reported as 97 % of control.
For CS/C(=N\N=C(/C)c1ccccn1)N1CCN(c2ccccn2)CC1, the T/C [4] was 98 % of control, the T/C (dose: 200.0 mg/kg/injection, schedule: Q04DX003 (ip), vehicle: saline with Tween-80) was 99 % of control and the T/C (dose: 400.0 mg/kg/injection, schedule: Q04DX003 (ip), vehicle: saline with Tween-80) was 96 % of control.
With COc1cc2c(cc1OC)C(Cc1ccccc1)=NCC2 the T/C (dose: 25.0 mg/kg/injection, schedule: Q01DX009 (ip), vehicle: saline with Tween-80) was 100 % of control, the T/C (dose: 50.0 mg/kg/injection, schedule: Q01DX009 (ip), vehicle: saline with Tween-80) was 95 % of control and the T/C (dose: 100.0 mg/kg/injection, schedule: Q01DX009 (ip), vehicle: saline with Tween-80) was 90 % of control.
C=CCOc1cc2c(cc1C(C)c1ccc(OC)cc1)OCO2 (centres undefined) was tested, and the T/C (dose: 25.0 mg/kg/injection, schedule: Q01DX005 (ip), vehicle: Klucel (hydroxypropylcellulose) (HPC)) was 104 % of control and 116 % of control, the T/C [5] was 100 % of control and 109 % of control and the T/C (dose: 200.0 mg/kg/injection, schedule: Q01DX005 (ip), vehicle: Klucel + Tween-80) was 202 % of control. The T/C [6] was 106 % of control and 112 % of control, the T/C (dose: 500.0 mg/kg/injection, schedule: Q01DX001 (ip), vehicle: saline with Tween-80) was 96 % of control and the T/C (dose: 800.0 mg/kg/injection, schedule: Q01DX005 (ip), vehicle: saline with Tween-80) was 184 % of control. For the same compound, the T/C (dose: 1000.0 mg/kg/injection, schedule: Q01DX001 (ip), vehicle: saline with Tween-80) was 122 % of control.
With O=c1c2c([nH]c3c1c1[nH]c4c(c(=O)c1c1[nH]c5c(c(=O)c31)CCCC5)CCCC4)CCCC2 the T/C (dose: 25.0 mg/kg/injection, schedule: Q04DX003 (ip), vehicle: saline with Tween-80) was 104 % of control, the T/C (dose: 50.0 mg/kg/injection, schedule: Q04DX003 (ip), vehicle: saline with Tween-80) was 95 % of control and the T/C [4] was 87 % of control and 95 % of control.
With Cc1nc(C(=O)O)cc(Cl)c1C the T/C (dose: 12.5 mg/kg/injection, schedule: Q01DX009 (ip), vehicle: distilled water + Tween-80) was 100 % of control, the T/C (dose: 25.0 mg/kg/injection, schedule: Q01DX009 (ip), vehicle: distilled water + Tween-80) was 100 % of control and the T/C (dose: 50.0 mg/kg/injection, schedule: Q01DX009 (ip), vehicle: distilled water + Tween-80) was 96 % of control. For the same compound, the T/C (dose: 100.0 mg/kg/injection, schedule: Q01DX009 (ip), vehicle: distilled water + Tween-80) was 100 % of control and the T/C (dose: 200.0 mg/kg/injection, schedule: Q01DX009 (ip), vehicle: distilled water + Tween-80) was 96 % of control.
With C=CCNC(=S)N/N=C(\C)c1cccc(C)n1 the T/C (dose: 50.0 mg/kg/injection, schedule: Q01DX005 (ip), vehicle: saline with Tween-80) was 100 % of control, the T/C [5] was 100 % of control and the T/C [6] was 112 % of control.
With CCOC(=O)C(CC(=O)O)=C(c1ccccc1)c1ccccc1 the T/C [1] was 107 % of control, the T/C [2] was 100 % of control and the T/C [3] was 107 % of control.
